Where two headings read alike, the source gives them in different places.
Target: T1, Phosphodiesterase-6 (Bos taurus, UniProt P11541+P23439)
T1 construct: using an enzyme isolated from bovine retinas at Eurofins-Cerep; tissue Eurofins-Cerep; host or cells: bovine retinas
T1 sequence (P11541 2-856 limits assumed): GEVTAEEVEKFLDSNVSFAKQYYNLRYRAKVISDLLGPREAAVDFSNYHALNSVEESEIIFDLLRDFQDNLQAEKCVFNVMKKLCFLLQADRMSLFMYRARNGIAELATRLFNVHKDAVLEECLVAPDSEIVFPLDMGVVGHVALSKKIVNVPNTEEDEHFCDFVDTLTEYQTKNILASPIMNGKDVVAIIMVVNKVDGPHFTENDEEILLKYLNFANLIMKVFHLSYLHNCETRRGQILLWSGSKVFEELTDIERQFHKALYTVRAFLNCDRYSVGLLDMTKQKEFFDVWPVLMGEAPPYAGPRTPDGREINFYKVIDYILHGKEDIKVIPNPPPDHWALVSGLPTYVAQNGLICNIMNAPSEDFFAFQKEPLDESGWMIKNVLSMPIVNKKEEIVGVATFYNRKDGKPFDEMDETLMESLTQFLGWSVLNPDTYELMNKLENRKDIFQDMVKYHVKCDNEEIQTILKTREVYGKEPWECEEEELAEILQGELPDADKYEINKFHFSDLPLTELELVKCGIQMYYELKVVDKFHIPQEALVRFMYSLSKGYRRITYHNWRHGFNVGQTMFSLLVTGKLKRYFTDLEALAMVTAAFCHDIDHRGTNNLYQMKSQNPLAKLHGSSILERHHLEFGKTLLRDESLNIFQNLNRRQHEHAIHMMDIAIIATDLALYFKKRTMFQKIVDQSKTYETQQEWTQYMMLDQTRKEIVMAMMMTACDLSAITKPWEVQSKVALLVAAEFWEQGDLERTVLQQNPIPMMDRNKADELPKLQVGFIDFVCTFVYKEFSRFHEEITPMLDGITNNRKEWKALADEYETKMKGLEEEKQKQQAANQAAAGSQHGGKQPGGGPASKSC
T1 sequence (P23439 2-850 limits assumed): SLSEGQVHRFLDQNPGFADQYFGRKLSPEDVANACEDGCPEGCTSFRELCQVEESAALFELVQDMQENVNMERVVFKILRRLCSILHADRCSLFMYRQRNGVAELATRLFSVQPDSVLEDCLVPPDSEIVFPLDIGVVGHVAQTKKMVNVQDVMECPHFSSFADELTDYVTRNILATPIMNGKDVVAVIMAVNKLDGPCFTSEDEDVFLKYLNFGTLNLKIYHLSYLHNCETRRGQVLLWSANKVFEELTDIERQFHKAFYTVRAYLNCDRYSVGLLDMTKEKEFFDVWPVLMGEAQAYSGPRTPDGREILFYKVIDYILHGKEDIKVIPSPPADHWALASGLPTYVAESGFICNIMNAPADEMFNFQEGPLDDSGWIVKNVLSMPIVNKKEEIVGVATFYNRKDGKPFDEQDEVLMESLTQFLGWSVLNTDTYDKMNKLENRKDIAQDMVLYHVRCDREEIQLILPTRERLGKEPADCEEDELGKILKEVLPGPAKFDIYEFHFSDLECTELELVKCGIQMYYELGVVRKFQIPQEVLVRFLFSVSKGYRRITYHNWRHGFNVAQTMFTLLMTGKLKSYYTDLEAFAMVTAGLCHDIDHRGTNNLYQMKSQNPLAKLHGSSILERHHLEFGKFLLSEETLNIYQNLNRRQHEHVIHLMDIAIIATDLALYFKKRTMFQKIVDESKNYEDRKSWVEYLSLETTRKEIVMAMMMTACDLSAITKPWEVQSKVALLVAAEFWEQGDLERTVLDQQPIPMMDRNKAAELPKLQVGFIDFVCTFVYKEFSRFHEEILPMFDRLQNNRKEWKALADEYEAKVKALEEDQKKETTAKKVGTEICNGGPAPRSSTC
Assay: PDE6 (non-selective) assay
Format: biochemical, bovine
Description: The test compound (compound 72), reference compound or water (control) were added to a buffer containing 40 mM Tris/HCl (pH 7.4) and 8 mM MgCl2, 450 nM cAMP and 0.0125 μCi [3H]cAMP. Thereafter, the reaction was initiated by addition of the enzyme (about 1.5 U) and the mixture was incubated for 20 min at 22° C. For basal control measurements, the enzyme was omitted from the reaction mixture. Following incubation SPA beads were added. After 30 min at 22° C. under shaking, the amount of [3H]5′AMP was quantified with a scintillation counter (Topcount, Packard). The results were expressed as a percent inhibition of the control enzyme activity. The standard inhibitory reference compound was Ro 20-1724, which was tested in each experiment at several concentrations to obtain an inhibition curve from which its IC50 value was calculated. • Phosphodiesterase-6 quantified by measuring the formation of 5′GMP from cGMP using an enzyme isolated from bovine retinas at Eurofins-Cerep
The test compound (compound 72), reference compound or water (control) were added to a buffer containing 40 mM Tris/HCl (pH 7.8), 3 mM MgCl2, 1.4 mM DTT, 0.21% BSA, 200 mM NH4Cl, 2 μM cGMP and 0.05 μCi [3H]cGMP. […] After 20 min at 22° C. under shaking, the amount of [3H]5′GMP was quantified with a scintillation counter (Topcount, Packard). The results were expressed as a percent inhibition of the control enzyme activity. […]

COCCN(CCOC)c1nc(N2CCN(C)C(=O)C2)c2nc(N(CCOC)CCOC)nc(N3CCC(OC)CC3)c2n1 [Compound 72, 4-(2,6-bis(bis(2-methoxyethyl)amino)-8-(4-methoxypiperidin-1-yl)pyrimido[5,4-d]pyrimidin-4-yl)-1-methylpiperazin-2-one]
IC50 (read-out: PDE6 (non-selective) IC50): 1 to 10 µM
IC50 (read-out: PDE6 IC50): 3.23 µM

Reference: patent US20230146675A1, “PYRIMIDO[5,4-d]PYRIMIDINE DERIVATIVES AS ENT INHIBITORS FOR THE TREATMENT OF CANCERS, AND COMBINATION THEREOF WITH ADENOSINE RECEPTOR ANTAGONISTS” (ITEOS BELGIUM SA, priority 2020, published 2023)
